Measured values from patent US5393786A, “Method for treating inflammation, ischemia-induced cell damage and muscular dystrophy” (priority 1993, dated 1995).
Structures can show the parent of a compound that is named as a salt. Where two headings read alike, the source gives them in different places.

Experiments:
[1] = system: hippocampal CA1 pyramidal cell layer; test: Stroke model in rats (four-vessel occlusion), hippocampal CA1 damage; details: for Damage Score, Hippocampus: scale 0-3, mean ± SE
Source text: (§1) Strokes were produced in rats by occluding the four arteries that supply blood to the brain according to the following procedure. Male Wistar rats (250-280 g; Hilltop Laboratories, Scottsdale, Pa.) were anesthetized with metofane and placed into a stereotaxic instrument. A longitudinal incisio was made on the dorsal surface of the neck. The neck muscles were reflected to expose the dorsal surface of the spinal column. The two vertebral arteries were exposed where they pass through the first cervica vertebra. Both arteries were permanently occluded by the application of electrocautery. After coagulation of the vertebral arteries, the rat was removed from the stereotaxic instrument and the surgical wound was sutured. Two longitudinal incisions were then made on the ventral surface of the neck. The two common carotid arteries were exposed and dissected free from surrounding nerves and connective tissue. Reversible atraumatic clamps, fabricated mainly from silicon rubber tubing, were placed around each carotid artery in a manner such that the vessels were not traumatize or occluded. The clamps were externalized through the ventral neck incision. A suture was also placed through the neck dorsal to the carotids, esophagus and trachea, and tied loosely behind the neck. This suture is tied tightly at the time ischemia is induced in order to restrict collateral circulation reaching the brain through the dorsal muscles of the neck. The surgical wounds were then closed. After the surgery, the rats were allowed to recover for 24 hours (free access to water, but no food during this period).
(§2) On the day of testing, test compounds were administered at various times before stroke induction. Strokes (cerebral ischemia) were induced by tightening the clamps around the carotids, thereby stopping blood flow in the carotids. Rats in which strokes were successfully produced lost the righting reflex and became unresponsive to stimuli. Collateral circulatio through the dorsal neck muscles was then restricted by tightening the previously implanted suture. […] After 30 minutes of ischemia, the carotid clamps wer released, the neck suture was loosened, and blood flow to the brain was restored. Following the period of ischemia, the rats were allowed free access to food and water. Rats were again treated with test compounds at various times after the stroke. On the third day after the stroke the animals were sacrificed and their brains were removed, frozen and sectioned through the striatum and hippocampus. Sections were mounted on glass slides and stained with hematoxylin and eosin.
(§3) Two of the areas of the brain that are most susceptible to ischemia induce damage, both in rats and humans, are the CA1 pyramidal cell layer of the hippocampus and the striatal cell layer of the striatum. In animals that remain unresponsive for the 30 minute period of ischemia, the CA1 pyramidal cell layer and the striatal cell layer are completely destroyed. These layers of cells were examined microscopically in histological sections prepared from the hippocampus and striatum. Brain damage was rated according to the following scale:
(§4) 0=no damage, completely intact cell layer
(§5) 1=mild damage, onethird of cell layer dead
(§6) 2=moderate damage, twothirds of cell layer dead
(§7) 3=severe damage, complete destruction of cell layer
(§8) Damage in 10-12 sections from each brain was assessed in order to obtain a accurate estimate of damage. An average damage score was calculated for each treatment group. Scores from treated groups were compared statistically with scores from control groups which received only the vehicle used to suspend the compounds. The level of significance was determined using the Mann WhitneyU-test.

[2] = system: striatal cell layer of the striatum; test: Stroke model in rats (four-vessel occlusion), striatal damage; type: in vivo, male Wistar rats; details: scale 0-3, mean ± SE
Source text: as §1, §2, §3, §4, §5, §6, §7, §8

[3] = system: adjuvant-induced arthritis (uninjected hind paw); test: Developing Adjuvant-Induced Arthritis Test in Rats; type: in vivo, male Lewis-Wistar rats; details: po, 720 h, AUC days 16-30; for inhibition in vivo at 50 mg/kg: 50 mg/kg rat weight × 29, p.o. once daily
[4] = system: ischemia-induced cell damage caused by middle cerebral artery occlusion; test: Middle Cerebral Artery Occlusion Stroke Model; type: in vivo, male spontaneously hypertensive rats; details: for toxicity of higher doses (footnote ++): doses above 10/5 mg/kg i.v.
Source text: Strokes were also produced in rats by occluding the middle cerebral artery according to the following procedure. Male spontaneously hypertensive rats were housed in groups of three to four per cage and allowed free access to food and water. The animals were anesthetized with a mixture of 2.5% halothane and air. The anesthetized rats then underwent the following surgical procedure.
A femoral artery of each rat was cannulated to monitor mean arterial pressure and a jugular cannula was inserted in order to provide a means for administering test compounds intravenously. […] The ventral neck area and the area behind each animal's right eye were shaved and washed with antiseptic solution. The right common carotid artery was dissected free of connective tissue through a midline cervical incision and the vessel permanently occluded with a silk ligature. Next, a 1 cm incision perpendicular to, and bisecting a line between the lateral canthus of the right eye and the external auditory canal, was made to expose the temporalis muscle which was retracted and partially excised. Using a dissecting microscope, the right middle cerebral artery was exposed through a 2 mm burr hole drilled 2-3 mm rostral to the fusion of the zygomatic arch with a squamosal bone. Drilling was done under a continuous drip of a 0.9% saline solution to prevent heat injury of the underlying cortex. The dura was cut and retracted to expose the middle cerebral artery.
This artery was occluded in two ways. The first method of occlusion involved permanent cauterization of the artery so that blood flow through the artery was completely eliminated. The second method of occulsion was only temporary (lasting two hours) and involved clamping the artery with microaneurism clips. Test compounds were administered at various times before, during and after occlusion. Each animal's body temperature was maintained at 37° C. during testing using a rectal thermometer connected to a heating pad.
Twenty-four hours after tandem middle cerbral carotid artery occlusion, the test animals were sacrificed and their brains removed and frozen over dry ice. Coronal sections 20 microns thick were cut at half millimeter intervals in a cryostat at -20° C. and dried on a hot plate at 60° C. The sections were then stained with cresyl violet. […] A total infarct volume was then calculated using a computer program that summed all sectional areas measured multiplied by the interval thickness. The lower the infarcted volume obtained, the lower the amount of cell damage caused by the stroke. The level of significance was obtained using Student's "t-test".

[5] = 100 mg/kg orally, 2% acacia, time c (30 min pre, 4 h and 24 h postischemia), control 2.5 ± 0.3
[6] = 100 mg/kg orally, 2% acacia, time c (30 min pre, 4 h and 24 h postischemia), control 1.4 ± 0.3
[7] = 25 mg/kg rat weight × 29, p.o. once daily, read-out: % Inhibition of Uninjected Paw Volume Inflammation, Days 16-30
[8] = read-out: % Inhibition of Uninjected Paw Volume Inflammation, Days 16-30
[9] = 25 mg/kg orally, water, time a (15 min pre, 4 h and 24 h postischemia), control 2.5 ± 0.3
[10] = 100 mg/kg orally, 2% acacia, time c (30 min pre, 4 h and 24 h postischemia), control 2.7 ± 0.2
[11] = 100 mg/kg orally, water, time a (15 min pre, 4 h and 24 h postischemia), control 2.7 ± 0.2
[12] = Rattus norvegicus, read-out: % Inhibition of Uninjected Paw Volume Inflammation, Days 16-30, 25 mg/kg rat weight × 29, p.o. once daily
[13] = 50 mg/kg orally, 2% acacia, time c (30 min pre, 4 h and 24 h postischemia), control 2.73 ± 0.22
[14] = 50 mg/kg orally, 2% acacia, time c (30 min pre, 4 h and 24 h postischemia), control 2.71 ± 0.22
[15] = 100 mg/kg orally, 2% acacia, time a (15 min pre, 4 h and 24 h postischemia), control 2.9 ± 0.1
[16] = 100 mg/kg orally, 2% acacia, time a (15 min pre, 4 h and 24 h postischemia), control 2.4 ± 0.4

Compound: CC(C)(C)c1cc(CN2CCCC2)cc(C(C)(C)C)c1O.Cl [4-(1-pyrrolidinomethyl)-2,6-bis(1,1-dimethylethyl)phenol hydrochloride]
- Damage Score, Hippocampus [1, 5]: 1.2 ± 0.5
- Damage Score, Striatum [2, 6]: 1.5 ± 0.4

Compound: CC(C)(C)c1cc(CN2CCOCC2)cc(C(C)(C)C)c1O [4-(4-morpholinylmethyl)-2,6-bis(1,1-dimethylethyl)phenol]
- inhibition in vivo at 25 mg/kg [3, 7]: 40.6%
- inhibition in vivo at 50 mg/kg [3, 8]: 71.1%

Compound: CCNC(C)c1cc(C(C)(C)C)c(O)c(C(C)(C)C)c1.Cl (stereo not drawn) [4-[1-(ethylamino)ethyl]-2,6-bis(1,1-dimethylethyl)phenol hydrochloride]
- toxicity in stroke model (footnote ****) ([1]; 50 mg/kg orally, 2% acacia, time c, data on only 7 rats): data obtained on only 7 rats because of toxicity problems
- Damage Score, Hippocampus ([1]; 50 mg/kg orally, 2% acacia, time c (30 min pre, 4 h and 24 h postischemia), control 2.6 ± 0.3, only 7 rats because of toxicity): 0.9 ± 0.4
- toxicity of higher doses (footnote ++) ([4]; temporary occlusion, 10% DMSO in saline): higher doses were toxic in this model
- Infarct Volume ([4]; temporary occlusion, 10/5 mg/kg i.v. (per hour), 10% DMSO in saline, time d, control 106 ± 15): 92 ± 10 (mm)^3
- Damage Score, Striatum ([2]; 50 mg/kg orally, 2% acacia, time c (30 min pre, 4 h and 24 h postischemia), control 1.9 ± 0.4, only 7 rats because of toxicity): 1.5 ± 0.5

Compound: CN(C)CCc1cc(C(C)(C)C)c(O)c(C(C)(C)C)c1.Cl [4-[2-(dimethylamino)ethyl]-2,6-bis(1,1-dimethylethyl)phenol hydrochloride]
- Damage Score, Hippocampus [1, 9]: 1.6 ± 0.3
- Damage Score, Hippocampus ([1]; 50 mg/kg orally, water, time a (15 min pre, 4 h and 24 h postischemia), control 3.0 ± 0.0): 0.8 ± 0.4
- Damage Score, Hippocampus [1, 10]: 0.2 ± 0.2
- Damage Score, Hippocampus [1, 11]: 0.2 ± 0.2
- toxicity of higher doses (footnote ++) ([4]; permanent occlusion, saline): higher doses were toxic in this model
- Infarct Volume ([4]; permanent occlusion, 10/5 mg/kg i.v. (per hour), saline, time c, control 154 ± 11): 161 ± 17 (mm)^3
- Infarct Volume ([4]; temporary occlusion, 20/5 mg/kg i.v. (per hour), saline, time d, control 84.7 ± 6.4): 77.6 ± 5.5 (mm)^3
- Damage Score, Striatum [2, 9]: 0.9 ± 0.3
- Damage Score, Striatum ([2]; 50 mg/kg orally, water, time a (15 min pre, 4 h and 24 h postischemia), control 2.8 ± 0.2): 0.3 ± 0.2
- Damage Score, Striatum [2, 10]: 0.0 ± 0.0
- Damage Score, Striatum [2, 11]: 0.1 ± 0.0

Compound: CN(C)CCc1cc(C(C)(C)C)c(O)c(C(C)(C)C)c1 [4-[2-(dimethylamino)ethyl]-2,6-bis(1,1-dimethylethyl)phenol]
- Damage Score, Hippocampus [1, 10]: 0.0 ± 0.0
- Damage Score, Striatum [2, 10]: 0.0 ± 0.0

Compound: CNCCc1cc(C(C)(C)C)c(O)c(C(C)(C)C)c1.Cl [4-[2-(methylamino)ethyl]-2,6-bis(1,1-dimethylethyl)phenol hydrochloride]
- inhibition in vivo at 25 mg/kg [3, 12]: 72.2%
- hypothermia (footnote +++) ([4]; dose of 50/10 i.v., permanent occlusion): severe hypothermia
- Infarct Volume ([4]; permanent occlusion, 30/5 mg/kg i.v. (per hour), saline, time c, control 129 ± 14): 130 ± 16 (mm)^3

Compound: CNCCc1ccc(O)c(C(C)(C)C)c1.Cl [4-[2-(methylamino)ethyl]-2-(1,1-dimethylethyl)phenol hydrochloride]
- Damage Score, Hippocampus [1, 13]: 2.78 ± 0.12
- inhibition in vivo at 25 mg/kg [3, 12]: 76.6%
- Damage Score, Striatum [2, 14]: 1.62 ± 0.35

Compound: CCN(C)Cc1cc(C(C)(C)C)c(O)c(C(C)(C)C)c1 [4-[(N-ethyl-N-methylamino)methyl]-2,6-bis(1,1-dimethylethyl)phenol methanesulfonate]
- Damage Score, Hippocampus [1, 15]: 1.1 ± 0.5
- inhibition in vivo at 25 mg/kg [3, 7]: 26%
- Damage Score, Striatum [2, 16]: 1.1 ± 0.4

Compound: CCN(CC)Cc1cc(C(C)(C)C)c(O)c(C(C)(C)C)c1.Cl [4-[(diethylamino)methyl]-2,6-bis(1,1-dimethylethyl)phenol hydrochloride]
- Damage Score, Hippocampus [1, 5]: 2.0 ± 0.5
- Damage Score, Striatum [2, 6]: 1.7 ± 0.6

Compound: CN(C)Cc1cc(C(C)(C)C)c(O)c(C(C)(C)C)c1 [4-[(dimethylamino)methyl]-2,6-bis(1,1-dimethylethyl)phenol methanesulfonate]
- Damage Score, Hippocampus [1, 15]: 0.9 ± 0.3
- Infarct Volume ([4]; temporary occlusion, 30/5 mg/kg i.v. (per hour), saline, time d (15 min before clamp removal, then 24 h), control 97 ± 10): 69 ± 9 (mm)^3
- Damage Score, Striatum [2, 16]: 0.8 ± 0.3

Compound: CCNCc1cc(C(C)(C)C)c(O)c(C(C)(C)C)c1 [4-[(ethylamino)methyl]-2,6-bis(1,1-dimethylethyl)phenol nitrate]
- Damage Score, Hippocampus ([1]; 50 mg/kg orally, 2% acacia, time c (30 min pre, 4 h and 24 h postischemia), control 2.90 ± 0.04): 1.81 ± 0.36
- Damage Score, Striatum ([2]; 50 mg/kg orally, 2% acacia, time c (30 min pre, 4 h and 24 h postischemia), control 2.30 ± 0.32): 1.26 ± 0.40

Compound: CC(C)NCc1cc(C(C)(C)C)c(O)c(C(C)(C)C)c1 [4-[(isopropylamino)methyl]-2,6-bis(1,1-dimethylethyl)-phenol hydrochloride]
- inhibition in vivo at 25 mg/kg [3, 7]: 4.9%

Compound: CCCNCc1cc(C(C)(C)C)c(O)c(C(C)(C)C)c1.Cl [4-[(n-propylamino)methyl]-2,6-bis(1,1-dimethylethyl)phenol hydrochloride]
- Damage Score, Hippocampus ([1]; 50 mg/kg orally, distilled water, time c (30 min pre, 4 h and 24 h postischemia), control 2.96 ± 0.03): 1.48 ± 0.34
- Damage Score, Striatum ([2]; 50 mg/kg orally, distilled water, time c (30 min pre, 4 h and 24 h postischemia), control 2.53 ± 0.22): 1.05 ± 0.33

Compound: CC(C)(C)NCc1cc(C(C)(C)C)c(O)c(C(C)(C)C)c1.Cl [4-{[(1,1-dimethylethyl)amino]methyl}-2,6-bis(1,1dimethylethyl)phenol hydrochloride]
- Damage Score, Hippocampus [1, 13]: 1.72 ± 0.43
- inhibition in vivo at 25 mg/kg [3, 7]: 3.9%
- Damage Score, Striatum [2, 14]: 0.75 ± 0.35

Compound: CN(Cc1cc(C(C)(C)C)c(O)c(C(C)(C)C)c1)Cc1cc(C(C)(C)C)c(O)c(C(C)(C)C)c1.Cl [4-{[N-methyl-N-(4-hydroxy-3,5-bis(1,1-dimethylethyl)benzyl)amino]methyl}-2,6-bis(1,1-dimethylethyl)phenol hydrochloride]
- Damage Score, Hippocampus [1, 10]: 2.9 ± 0.1
- Damage Score, Striatum [2, 10]: 1.8 ± 0.4

Compound: CN(Cc1cc(C(C)(C)C)c(O)c(C(C)(C)C)c1)Cc1cc(C(C)(C)C)c(O)c(C(C)(C)C)c1 [4-{[N-methyl-N-(4-hydroxy-3,5-bis(1,1-dimethylethyl)benzyl)amino]methyl}-2,6-bis(1,1-dimethylethyl)phenol]
- Damage Score, Hippocampus [1, 10]: 2.9 ± 0.2
- inhibition in vivo at 50 mg/kg [3, 8]: 77%
- Damage Score, Striatum [2, 10]: 2.4 ± 0.4

Compound: CN(C)C(=O)c1cc(C(C)(C)C)c(O)c(C(C)(C)C)c1 [N,N-dimethyl-3,5-bis(1,1-dimethylethyl)-4-hydroxybenzamide]
- inhibition in vivo at 50 mg/kg [3, 8]: 64.4%

Compound: CC(C)(C)c1cc(C(=O)Nc2ccccc2Cl)cc(C(C)(C)C)c1O [N-2-chlorophenyl-3,5-bis(1,1-dimethylethyl)-4-hydroxy-benzamide]
- inhibition in vivo at 50 mg/kg [3, 8]: 8.7%
